From ChEMBL document CHEMBL1158640, “Synthesis, analgesic and anti-inflammatory activities of some novel pyrazolines derivatives” (Bioorg Med Chem Lett, 2010)
Calls of active or inactive are those of the source. The calls are words filed in the database; no cut-off is given here.

Assays:
Rattus norvegicus [1] = assay: Antiinflammatory activity in Wistar rat assessed as reduction of carrageenan-induced increase in paw volume at 30 mg/kg, po after 3 hrs; format: functional
Mus musculus [2] = assay: Toxicity in Swiss albino mouse up to 1000 mg/kg, po; format: organism-based; set-up: dose 1000 mg/kg, route oral; conditions: in vivo
Mus musculus [3] = assay: Analgesic activity against acetic acid-induced writhing in Swiss albino mouse at 30 mg/kg, po; format: functional, organism-based; set-up: dose 30 mg/kg
Rattus norvegicus [4] = assay: Toxicity in Wistar rat up to 1000 mg/kg, po; format: organism-based; set-up: dose 1000 mg/kg, route oral; conditions: in vivo
Rattus norvegicus [5] = assay: Antiinflammatory activity in Wistar rat assessed as reduction of carrageenan-induced increase in paw volume at 30 mg/kg, po after 4 hrs; format: functional
Rattus norvegicus [6] = assay: Antiinflammatory activity in Wistar rat assessed as reduction of carrageenan-induced increase in paw volume at 30 mg/kg, po after 2 hrs; format: functional
Rattus norvegicus [7] = assay: Antiinflammatory activity in Wistar rat assessed as reduction of carrageenan-induced increase in paw volume at 30 mg/kg, po after 24 hrs; format: functional
Rattus norvegicus [8] = assay: Antiinflammatory activity in Wistar rat assessed as reduction of carrageenan-induced increase in paw volume at 1000 mg/kg, po; format: functional, organism-based; set-up: dose 1000 mg/kg

**Q.** For `Oc1ccc(Br)cc1C1=NNC(c2ccc(N3CCOCC3)cc2)C1` (stereo unspecified), which Activity (Rattus norvegicus [1]) is on record?
**A.** Its Activity is 0.52 mL.

**Q.** What about the Activity (Mus musculus [2]) of the same molecule?
**A.** The Activity was “Non-toxic”.

**Q.** And the Activity (Mus musculus [3])?
**A.** The Activity was “Active”.

**Q.** And the Activity (Rattus norvegicus [4])?
**A.** Its Activity is “Non-toxic”.

**Q.** And the Activity (Rattus norvegicus [5])?
**A.** The Activity was 0.64 mL.

**Q.** And the Activity (Rattus norvegicus [6])?
**A.** The Activity was 0.86 mL.

**Q.** What about the Activity (Rattus norvegicus [7]) of the same molecule?
**A.** The Activity was 0.98 mL.

**Q.** And the Activity (Rattus norvegicus [8])?
**A.** Its Activity is “Active”.

**Q.** `Cc1cc(O)c(C2=NNC(c3ccc(N4CCOCC4)cc3)C2)cc1Cl` (stereo unspecified) was tested. Which Activity (Rattus norvegicus [1]) did it give?
**A.** The Activity was 1.62 mL.

**Q.** And the Activity (Mus musculus [2])?
**A.** The Activity was “Non-toxic”.

**Q.** And the Activity (Rattus norvegicus [4])?
**A.** The Activity was “Non-toxic”.

**Q.** What about the Activity (Rattus norvegicus [5]) of the same molecule?
**A.** Its Activity is 1.63 mL.

**Q.** And the Activity (Rattus norvegicus [6])?
**A.** The Activity was 1.56 mL.

**Q.** And the Activity (Rattus norvegicus [7])?
**A.** The Activity was 1.93 mL.

**Q.** What about the Activity (Rattus norvegicus [8]) of the same molecule?
**A.** Its Activity is “Active”.

**Q.** `O=C([O-])Cc1ccccc1Nc1c(Cl)cccc1Cl.[Na+]` [DICLOFENAC SODIUM] was tested. Which Activity (Rattus norvegicus [1]) did it give?
**A.** The Activity was 0.18 mL.

**Q.** And the Activity (Rattus norvegicus [5])?
**A.** The Activity was 0.18 mL.

**Q.** What about the Activity (Rattus norvegicus [6]) of the same molecule?
**A.** The Activity was 0.18 mL.

**Q.** What about the Activity (Rattus norvegicus [7]) of the same molecule?
**A.** Its Activity is 0.03 mL.

**Q.** For `Oc1ccccc1C1=NNC(c2ccc(N3CCOCC3)cc2)C1` (stereo unspecified), which Activity (Rattus norvegicus [1]) is on record?
**A.** The Activity was 0.59 mL.

**Q.** What about the Activity (Mus musculus [2]) of the same molecule?
**A.** The Activity was “Non-toxic”.

**Q.** What about the Activity (Rattus norvegicus [4]) of the same molecule?
**A.** The Activity was “Non-toxic”.

**Q.** What about the Activity (Rattus norvegicus [5]) of the same molecule?
**A.** Its Activity is 0.69 mL.

**Q.** And the Activity (Rattus norvegicus [6])?
**A.** The Activity was 0.73 mL.

**Q.** And the Activity (Rattus norvegicus [7])?
**A.** The Activity was 0.68 mL.

**Q.** What about the Activity (Rattus norvegicus [8]) of the same molecule?
**A.** The Activity was “Active”.

**Q.** What does the source list for `Cc1ccc(O)c(C2=NN(C(=S)Nc3ccccc3)C(c3ccc(N4CCOCC4)cc3)C2)c1` (stereo unspecified)?
**A.** Activity (Rattus norvegicus [1]): 1.6 mL; Activity (Mus musculus [2]): Non-toxic; Activity (Rattus norvegicus [4]): Non-toxic; Activity (Rattus norvegicus [5]): 1.43 mL; Activity (Rattus norvegicus [6]): 1.52 mL; Activity (Rattus norvegicus [7]): 1.92 mL; Activity (Rattus norvegicus [8]): Active

**Q.** Which Activity (Rattus norvegicus [1]) does the source give for `Oc1ccccc1C1=NN(C(=S)Nc2ccccc2)C(c2ccc(N3CCOCC3)cc2)C1` (stereo unspecified) here?
**A.** Its Activity is 0.62 mL.

**Q.** And the Activity (Mus musculus [2])?
**A.** The Activity was “Non-toxic”.

**Q.** What about the Activity (Rattus norvegicus [4]) of the same molecule?
**A.** The Activity was “Non-toxic”.

**Q.** And the Activity (Rattus norvegicus [5])?
**A.** Its Activity is 0.84 mL.

**Q.** What about the Activity (Rattus norvegicus [6]) of the same molecule?
**A.** Its Activity is 0.82 mL.

**Q.** And the Activity (Rattus norvegicus [7])?
**A.** Its Activity is 0.94 mL.

**Q.** And the Activity (Rattus norvegicus [8])?
**A.** The Activity was “Active”.

**Q.** Which Activity (Rattus norvegicus [1]) does the source give for `Oc1ccc(Cl)cc1C1=NNC(c2ccc(N3CCOCC3)cc2)C1` (stereo unspecified) here?
**A.** The Activity was 1.6 mL.

**Q.** What about the Activity (Mus musculus [2]) of the same molecule?
**A.** Its Activity is “Non-toxic”.

**Q.** And the Activity (Rattus norvegicus [4])?
**A.** The Activity was “Non-toxic”.

**Q.** And the Activity (Rattus norvegicus [5])?
**A.** The Activity was 1.61 mL.

**Q.** And the Activity (Rattus norvegicus [6])?
**A.** The Activity was 1.52 mL.

**Q.** And the Activity (Rattus norvegicus [7])?
**A.** The Activity was 1.92 mL.

**Q.** What about the Activity (Rattus norvegicus [8]) of the same molecule?
**A.** Its Activity is “Active”.

**Q.** Which results are given for `Cc1ccc(O)c(C2=NNC(c3ccc(N4CCOCC4)cc3)C2)c1` (stereo unspecified)?
**A.** Activity (Rattus norvegicus [1]): 0.85 mL; Activity (Mus musculus [2]): Non-toxic; Activity (Mus musculus [3]): Active; Activity (Rattus norvegicus [4]): Non-toxic; Activity (Rattus norvegicus [5]): 0.96 mL; Activity (Rattus norvegicus [6]): 0.87 mL; Activity (Rattus norvegicus [7]): 0.79 mL; Activity (Rattus norvegicus [8]): Active

**Q.** For `Oc1ccc(Cl)cc1C1=NN(C(=S)Nc2ccccc2)C(c2ccc(N3CCOCC3)cc2)C1` (stereo unspecified), which Activity (Rattus norvegicus [1]) is on record?
**A.** The Activity was 0.72 mL.

**Q.** And the Activity (Mus musculus [2])?
**A.** The Activity was “Non-toxic”.

**Q.** What about the Activity (Mus musculus [3]) of the same molecule?
**A.** The Activity was “Active”.

**Q.** And the Activity (Rattus norvegicus [4])?
**A.** Its Activity is “Non-toxic”.

**Q.** What about the Activity (Rattus norvegicus [5]) of the same molecule?
**A.** The Activity was 0.72 mL.

**Q.** And the Activity (Rattus norvegicus [6])?
**A.** The Activity was 0.64 mL.

**Q.** What about the Activity (Rattus norvegicus [7]) of the same molecule?
**A.** The Activity was 0.86 mL.

**Q.** What about the Activity (Rattus norvegicus [8]) of the same molecule?
**A.** Its Activity is “Active”.

**Q.** For `Cc1cc(C)c(O)c(C2=NNC(c3ccc(N4CCOCC4)cc3)C2)c1` (stereo unspecified), which Activity (Rattus norvegicus [1]) is on record?
**A.** Its Activity is 1.57 mL.

**Q.** And the Activity (Mus musculus [2])?
**A.** The Activity was “Non-toxic”.

**Q.** What about the Activity (Rattus norvegicus [4]) of the same molecule?
**A.** The Activity was “Non-toxic”.

**Q.** And the Activity (Rattus norvegicus [5])?
**A.** The Activity was 1.53 mL.

**Q.** And the Activity (Rattus norvegicus [6])?
**A.** The Activity was 1.38 mL.

**Q.** And the Activity (Rattus norvegicus [7])?
**A.** The Activity was 1.92 mL.

**Q.** And the Activity (Rattus norvegicus [8])?
**A.** The Activity was “Active”.

**Q.** `Oc1c(Cl)cc(Cl)cc1C1=NN(C(=S)Nc2ccccc2)C(c2ccc(N3CCOCC3)cc2)C1` (stereo unspecified) was tested. Which Activity (Rattus norvegicus [1]) did it give?
**A.** Its Activity is 1.47 mL.

**Q.** And the Activity (Mus musculus [2])?
**A.** The Activity was “Non-toxic”.

**Q.** And the Activity (Rattus norvegicus [4])?
**A.** The Activity was “Non-toxic”.

**Q.** What about the Activity (Rattus norvegicus [5]) of the same molecule?
**A.** Its Activity is 1.52 mL.

**Q.** And the Activity (Rattus norvegicus [6])?
**A.** Its Activity is 1.49 mL.

**Q.** What about the Activity (Rattus norvegicus [7]) of the same molecule?
**A.** The Activity was 1.92 mL.

**Q.** What about the Activity (Rattus norvegicus [8]) of the same molecule?
**A.** The Activity was “Active”.

**Q.** What does the source list for `Oc1c(Cl)cc(Cl)cc1C1=NNC(c2ccc(N3CCOCC3)cc2)C1` (stereo unspecified)?
**A.** Activity (Rattus norvegicus [1]): 1.46 mL; Activity (Mus musculus [2]): Non-toxic; Activity (Rattus norvegicus [4]): Non-toxic; Activity (Rattus norvegicus [5]): 1.75 mL; Activity (Rattus norvegicus [6]): 1.41 mL; Activity (Rattus norvegicus [7]): 1.72 mL; Activity (Rattus norvegicus [8]): Active

**Q.** Which Activity (Rattus norvegicus [1]) does the source give for `Cc1cc(O)c(C2=NN(C(=S)Nc3ccccc3)C(c3ccc(N4CCOCC4)cc3)C2)cc1Cl` (stereo unspecified) here?
**A.** The Activity was 1.53 mL.

**Q.** What about the Activity (Mus musculus [2]) of the same molecule?
**A.** The Activity was “Non-toxic”.

**Q.** And the Activity (Rattus norvegicus [4])?
**A.** Its Activity is “Non-toxic”.

**Q.** What about the Activity (Rattus norvegicus [5]) of the same molecule?
**A.** The Activity was 1.57 mL.

**Q.** And the Activity (Rattus norvegicus [6])?
**A.** Its Activity is 1.42 mL.

**Q.** What about the Activity (Rattus norvegicus [7]) of the same molecule?
**A.** The Activity was 1.92 mL.

**Q.** What about the Activity (Rattus norvegicus [8]) of the same molecule?
**A.** The Activity was “Active”.

**Q.** Which results are given for `Oc1ccc(Br)cc1C1=NN(C(=S)Nc2ccccc2)C(c2ccc(N3CCOCC3)cc2)C1` (stereo unspecified)?
**A.** Activity (Rattus norvegicus [1]): 0.69 mL; Activity (Mus musculus [2]): Non-toxic; Activity (Mus musculus [3]): Active; Activity (Rattus norvegicus [4]): Non-toxic; Activity (Rattus norvegicus [5]): 0.91 mL; Activity (Rattus norvegicus [6]): 0.87 mL; Activity (Rattus norvegicus [7]): 0.92 mL; Activity (Rattus norvegicus [8]): Active

**Q.** With `Cc1cc(C)c(O)c(C2=NN(C(=S)Nc3ccccc3)C(c3ccc(N4CCOCC4)cc3)C2)c1` (stereo unspecified) as the molecule, how does the Activity (Rattus norvegicus [1]) read?
**A.** Its Activity is 1.81 mL.

**Q.** And the Activity (Mus musculus [2])?
**A.** Its Activity is “Non-toxic”.

**Q.** What about the Activity (Rattus norvegicus [4]) of the same molecule?
**A.** Its Activity is “Non-toxic”.

**Q.** And the Activity (Rattus norvegicus [5])?
**A.** The Activity was 1.63 mL.

**Q.** And the Activity (Rattus norvegicus [6])?
**A.** The Activity was 1.41 mL.

**Q.** And the Activity (Rattus norvegicus [7])?
**A.** Its Activity is 1.73 mL.

**Q.** And the Activity (Rattus norvegicus [8])?
**A.** The Activity was “Active”.
